This note sets out measurements from patent publication US20120189758A1, “Flavour Enhancement” (priority 2009, published 2012).

The nature of assay [1]: Taste comparison of model savoury base, GABA solution and base plus GABA (Example 2). To be noted: 4 experienced tasters; base: 5000 ppm table salt, 150 ppm MSG, 75 ppm IMP/GMP; GABA 10 ppm. How it is done: A model savoury solution containing 5000 ppm table salt, 150 ppm MSG and 75 ppm IMP/GMP was used as a base.
Another solution was prepared containing 10 ppm GABA.
In a third solution, 10 ppm GABA was added to the base solution.
The solutions were compared by a small group of experienced tasters (3 male, 1 female).
The base solution was described as salty and umami. The GABA solution was tasteless. All members of the group preferred the third solution over the first one and judged to be noticeably different from the base.

Assay [2] can be described thus: GABA concentration series in reference savoury solution, tasted for umami enhancement (Example 4). To be noted: 5000 ppm table salt, 15 ppm MSG, 75 ppm IMP/GMP. How it is done:
A reference solution containing 5000 ppm table salt, 15 ppm MSG and 75 ppm IMP/GMP was prepared. To different parts of this solution 5, 10, 15, 20, and 25 ppm GABA was added. The solutions were tasted by a small group of experienced tasters (3 male, 1 female). […] 15 ppm of GABA was the flavoured sample in comparison to the target.

Take `NCCCC(=O)O` [GABA, γ-amino butyric acid]: the taste description result in assay [1] is “tasteless”. In addition, the “GABA concentration of the flavoured (favoured) sample in comparison to the target” value in assay [2] amounted to 15 ppm.
